Source: patent US8778995B2, “Use of hydroxyoleic acid and related compounds in the manufacture of drugs” (Universitat de les Illies Balears, priority 2001, dated 2014)

How the values were obtained:
[1] = Temperature of transition from lamellar to hexagonal structure (HII) of DEPE membranes, X-ray diffraction/scattering; details: for TH, lamellar-hexagonal transition of DEPE: phospholipid:analog 20:1 mol:mol, Table 2, control 61
Description: The control value (in the absence of 2-hydroxyoleic) is 63° C. […] This important modification of the cell membrane has important consequences for molecular and cellular function. All the analogs of 2-hydroxyoleic tested that have therapeutic activity also induce effects on the membrane structure (Table 2).
Using this technique, we established that the structure of the membrane is altered by 2-hydroxyoleic acid and its analogs. The lowering of the temperature of transition from lamellar to hexagonal structure indicates an important effect on rearrangement of the lipid molecules in the membrane. This regulation of rearrangement forms the basis of the effect exerted by 2-hydroxyoleic acid and its analogs.

G-proteins = experiment: Binding of [35S]GTPγS to membranes of NIH 3T3 cells transfected with the rat adrenoceptor α2A/D (activity of G-proteins); type: biochemical
From the text: Hydroxyoleic acid and related compounds are capable of modulating the activity of G-proteins, measured by the binding of [^35S] GTPγS (FIG. 5).
The analogs of 2-hydroxyoleic produce an effect similar to that of 2-hydroxyoleic acid.

purified G-proteins = experiment: Activity of purified G-proteins in the absence of membrane; type: biochemical
From the text: (§1) This is because these molecules have an influence on the interaction of G-proteins with membranes and therefore on their cellular localization, as is shown in the photographs from confocal microscopy (FIG. 2). The effect of hydroxyoleic acid and its analogs on the localization and activity of G-proteins is not due to a direct interaction on them.
FIG. 6: Hydroxyoleic acid and its analogs had no effect on pure G-proteins (in the absence of membrane).

Gαi2 protein = experiment: Cellular localization of fluorescein-labeled Gαi2 protein, confocal microscopy; type: cell-based; details: primary astrocytes of rat brain, FIG. 2
From the text: as §1
(§2) In this way, inhibition of cell proliferation is achieved, as was confirmed by the appreciable and significant increases in the levels of the protein p21 and the decreases in the cell cycle proteins cdk2 and cyclins B and D3 (FIGS. 3A and B). Moreover, it has been observed that in cells in culture, 2-hydroxyoleic acid and its analogs induce significant increases in protein kinase C (increase of between 40% and 120%).
In control cells, the labeling indicates the presence of this protein throughout the cell, especially in the nucleus (arrow).

[2] = system: human lung cancer cells A549; experiment: Cell cycle proteins (cdk2, cyclin B, cyclin D3, p21) in A549 cells; type: cell-based
From the text: as §2
(§3) Similar effects were produced by all the analogs tested that comply with the general structural formula given earlier. […] This antiproliferative effect was also observed using other techniques and other cell types: in rat primary astrocytes, these fatty acids have an antiproliferative effect, which I studied by incorporating tritiated thymidine. Moreover, hydroxyoleic acid and its analogs are able to induce apoptosis or programmed cell death in human cancer cells. […] Using flow cytometry experiments, it was established that in the presence of 2-hydroxyoleic acid the number of live human leukemia cells (Jurkat) was only 10% of those that remained alive with Etoposide, a known antitumor agent.
Protein p21 inhibits the cell cycle, so it is an antiproliferative protein. […] The decrease in levels of this enzyme, or evidence of its degradation, indicate the start of apoptosis or programmed cell death. […]

[3] = system: human leukemia cells (Jurkat); experiment: Degradation of poly-ADP ribose polymerase (PARP) in Jurkat cells; type: cell-based; details: Jurkat cells, 10, 100 and 1000 μM, FIG. 3C
From the text: as §3
Protein p21 inhibits the cell cycle, so it is an antiproliferative protein. […] The decrease in levels of this enzyme, or evidence of its degradation, indicate the start of apoptosis or programmed cell death. In these experiments Etoposide was used as the positive control, as this molecule is known to be an inducer of apoptosis and an antitumor agent.

[4] = system: human lung cancer cells A549; experiment: Proliferation (cell density) of A549 tumor cells in culture; type: cell-based; details: FIG. 4A
From the text: (§4) The presence of 2-hydroxyoleic acid and/or its analogs in the cells induces activation of the signal pathway associated with p53, which induces the start of apoptosis or stopping of the cell cycle in various types of tumor cells. With the aim of carrying out the first objective of the present invention, in vitro and in vivo models were used.

[5] = system: Jurkat cells of human leukemia; experiment: Proliferation (cell density) of Jurkat tumor cells in culture; type: cell-based; details: FIG. 4B
From the text: as §4

[6] = system: human leukemia cells (Jurkat); experiment: Flow cytometry, number of live Jurkat cells; type: cell-based
From the text: as §3

[7] = system: cerebral tumor metastases, formed from a lung adenocarcinoma; experiment: Brain metastases of lung adenocarcinoma in a patient; type: in vivo, human; details: previous chemotherapy and radiotherapy without effect
From the text: The antitumor efficacy of 2-hydroxyoleic acid and its […] is shown in FIG. 8, in which we can see the disappearance of some cerebral tumor metastases, formed from a lung adenocarcinoma, after treatment with 2-hydroxyoleic acid.
Regulation of the Activity of G-Proteins Controls Blood Pressure.
The image on the left (8a) corresponds to the tumors before treatment and those on the right (8b, 8c and 8d) correspond to the tumors after treatment with 2-hydroxyoleic on various dates.

[8] = system: systolic arterial pressure; experiment: Blood pressure in Sprague-Dowley rats; type: in vivo; details: for systolic arterial pressure after acute treatment, in words: Sprague-Dowley rats, FIG. 10
Description: These reductions were of an acute form (at 2 hours of treatment, 19±6 mmHg, P<0.01, n=6) and of a chronic form (1 week, 26±7 mmHg, P<0.001, n=6).
Lower doses of this molecule (1-10 mg/kg) produced similar effects, but less marked. *P<0.01.

[9] = system: systolic arterial pressure; experiment: Blood pressure in humans; type: in vivo; details: 30 mg/kg, FIG. 9b
From the text: The days prior to treatment are shown with negative values. *P<0.05, **P<0.01.

heart rate = experiment: Heart rate during hypotensive treatment; type: in vivo; details: FIGS. 9a, 9b and 10
Description: The hypotensive effect produced by 2-hydroxyoleic acid and its analogs is that it induces a reduction in blood pressure of an acute form (which is evident from 2 hours of treatment) and chronic (which is maintained for days and weeks while the treatment is maintained). Aminoleic acid, for example, reduces blood pressure by 15 mmHg in chronic treatments lasting a week. These fatty acids regulate communication between receptor, G-protein and effector. The result is a modulation of the signals of cyclic AMP, phospholipase C and nitric oxide, which gives rise to a reduction in blood pressure. This effect is also connected with regulation of the membrane structure. […] An additional advantage of these compounds is that they control other cardiovascular risk factors: the serum lipid/lipoprotein profile and body weight (see below).

[10] = Body weight of rats in chronic treatment; type: in vivo; details: seventh day, Sprague-Dowley rat aged 2-3 months
From the text: Rats treated with these molecules lost body weight during chronic treatments (from 5 to 17 days). In these experiments, rats treated with 2-hydroxyoleic acid or its analogs, in particular aminoleic acid, had free access to food and water, in the same way as the control group of treated rats (FIG. 11). In these conditions there was a progressive decrease in the rats' body weight starting from the first day of treatment, up to 17 grams on the seventh day of treatment (5% of the normal body weight of a Sprague-Dowley rat aged 2-3 months). […] Similar experiments carried out on adult mice, for periods of up to 28 days with 2-hydroxyoleic acid, show reductions in body weight from 15% to 25%, relative to control mice (treated with vehicle).
The animals (Sprague-Dowley rats) had free access to food and water at any time.

For `CCCCCCCC/C=C\CCCCCCC(O)C(=O)O` (stereo not drawn) [2-hydroxyoleic acid, cis-2-hydroxy-9-octadecenoic acid], the “TH, temperature of transition from lamellar to hexagonal structure” value (“TH, temperature of transition” below) ([1]; DEPE:2OHOA 10:1 mol:mol) was 41 °C, the “TH, temperature of transition” value ([1]; DEPE:2OHOA 20:1 mol:mol) was 48 °C and the “TH, temperature of transition” value ([1]; DEPE:2OHOA 40:1 mol:mol) was 54 °C. The “function of the G-proteins ([35S]GTPγS binding), in words” value (G-proteins; FIG. 5) was “decrease in function of the G-proteins even greater than the anthracycline daunomycin”, the “influence on the activity of purified G-proteins” value (shortened to “influence on the activity”) (purified G-proteins; FIG. 6, listed as Hydroxyoleic acid) was “no effect” and the “influence on the activity” value (purified G-proteins; FIG. 6, listed as hydroxyoleic) was “did not have an influence”. The “cellular localization of Gαi2 protein” value (Gαi2 protein) was “in membrane and cytosol, but not in the nucleus”, the “cell cycle proteins cdk2, cyclin B and cyclin D3” value ([2]; FIG. 3A) was “decrease” and the p21 protein ([2]; incubation for 24 and 48 hours, FIG. 3B) was “large increases”. The “poly-ADP ribose polymerase (PARP) levels” value [3] was “degradation”, the “effect on proliferation of A549 cells” value [4] was “induce stoppage of division and the death of tumor cells” and the “effect on proliferation of Jurkat cells” value [5] was “induce stoppage of division and the death of tumor cells”. For the same compound, the “number of live Jurkat cells relative to those that remained alive with Etoposide” value [6] was 10%, the “effect on brain tumors (metastases) in a patient” value (“effect on brain tumors” for short) ([7]; FIG. 8) was “complete disappearance of the cancer” and the “effect on brain tumors” value ([7]; FIG. 8, listed as 2-hydroxyoleic) was “one of the tumors disappeared more quickly and the other one more slowly”. For the same compound, the “systolic arterial pressure after acute treatment, in words” value (shortened to “systolic arterial pressure”) [8] was “significant decreases”, the “blood pressure at lower doses, in words” value ([8]; acute and chronic treatments from 1 mg/kg to 10 mg/kg) was “significant reductions” and the “reduction of blood pressure, chronic” value ([8]; rats, 1 week, 3 daily injections of 30 mg/kg) was 26±7 mmHg. For the same compound, the “reduction of blood pressure, acute” value ([8]; rats, at 2 hours of treatment, 30 mg/kg) was 19±6 mmHg, the “blood pressure in humans, in words” value [9] was “significant, large decreases” and the “effect on heart rate” value (heart rate) was “without altering the heart rate”. The “decrease in body weight as share of normal body weight” value [10] was 5%.
In the case of `CCCCCCCC/C=C\CCCCCCC(N)C(=O)O` (stereo not drawn) [Aminoleic acid, 2-amino-oleic (2-amino-cis-9-octadecenoic)acid], the “TH, lamellar-hexagonal transition of DEPE” value (“TH … of DEPE” for short) [1] is reported as 49 °C, the “effect on proliferation of A549 cells” value [4] is reported as “induce stoppage of division and the death of tumor cells” and the “effect on proliferation of Jurkat cells” value [5] is reported as “induce stoppage of division and the death of tumor cells”. The “reduction of blood pressure, chronic treatments lasting a week” value ([8]; species not printed at the place) was 15 mmHg and the “decrease in body weight as share of normal body weight” value [10] was 5%.
For `CCCCCCCC/C=C\CCCCCCC(C)C(=O)O` (stereo not drawn) [Methyloleic acid, 2-methyl-oleic (2-methyl-cis-9-octadecenoic)acid], the “TH … of DEPE” value [1] was 50 °C, the “effect on proliferation of A549 cells” value [4] was “induce stoppage of division and the death of tumor cells” and the “effect on proliferation of Jurkat cells” value [5] was “induce stoppage of division and the death of tumor cells”. The “systolic arterial pressure” value [8] was “significant decreases”.
With `CCCCCCCC/C=C\CCCCCCCCCCCCCC(=O)O` [Nervonic acid, nervonic (cis-15-tetracosenoic)acid] the “TH … of DEPE” value [1] was 55 °C, the “effect on proliferation of A549 cells” value [4] was “induce stoppage of division and the death of tumor cells” and the “effect on proliferation of Jurkat cells” value [5] was “induce stoppage of division and the death of tumor cells”. For the same compound, the “systolic arterial pressure” value [8] was “significant decreases”.
For `CCCCCCCC/C=C\CCCCCCCC(=O)O` [Oleic acid, oleic (cis-9-octadecenoic)acid], the “TH … of DEPE” value [1] was 45 °C, the “effect on proliferation of A549 cells” value [4] was “induce stoppage of division and the death of tumor cells” and the “effect on proliferation of Jurkat cells” value [5] was “induce stoppage of division and the death of tumor cells”. The “effect on brain tumors” value ([7]; FIG. 8) was “complete disappearance of the cancer” and the “systolic arterial pressure” value [8] was “significant decreases”.
For `CCCCCC/C=C\CCCCCCCCCC(=O)O` [cis-Vaccenic acid, cis-vaccenic (cis-11-octadecenoic)acid], the “TH … of DEPE” value [1] was 53 °C and the “systolic arterial pressure” value [8] was “significant decreases”.
In the case of `COc1cccc2c1C(=O)c1c(O)c3c(c(O)c1C2=O)C[C@@](O)(C(C)=O)C[C@@H]3O[C@H]1C[C@H](N)[C@H](O)[C@H](C)O1` [daunomycin, reference compound], the “inhibition in the activity of G-proteins” value (G-proteins; 200 μM, membranes of NIH 3T3 cells) is reported as 46%, the “influence on the activity” value (purified G-proteins; FIG. 6) is reported as “did not have an influence” and the “influence on the activity” value (purified G-proteins; FIG. 6, listed as Daunomycin) is reported as “behavior similar to the control”.
For `CCCCCC/C=C\CCCCCCCC(=O)O` [palmitoleic acid, palmitoleic (cis-9-hexadecenoic)acid], the “effect on proliferation of A549 cells” value [4] was “induce stoppage of division and the death of tumor cells”, the “effect on proliferation of Jurkat cells” value [5] was “induce stoppage of division and the death of tumor cells” and the “systolic arterial pressure” value [8] was “significant decreases”.
